“And” between values parts separate entries of the source, which are not always exact repeats. Equal values may be shown once. “Also recorded” adds a separate entry of the source. Read-outs that look alike come from different tables or passages of the source.
Columns and labels:
hCB1R = target: T1, hCB1R (Homo sapiens, UniProt P21554); experiment: Radioligand displacement assay, [3H]SR141716A from homogenates of hCB1R-CHO cells; format: binding
T1 construct: host or cells: CHO cells, stably transfected
Protocol: (§1) The binding affinity of the herein described compounds toward the human CB2R was determined by a competitive radioligand binding assay according to the established in-house protocol using cell homogenates obtained from CHO cells stably transfected with hCB2R (hCB2R-CHO).[53],[73] For compounds binding with high affinity to hCB2R, the affinity toward CB1R was determined as well by radioligand displacement studies performed either with homogenates obtained from the mouse brain or hCB1R-CHO cells.
(§2) The binding affinities toward hCB1R and hCB2R were determined according to a previously published protocol.[22] In brief, membrane preparations obtained from CHO cell lines stably transfected with either human CB1R (hCB1R-CHO; obtained from Euroscreen, Gosselies, Belgium) or human CB2R (hCB2R-CHO; obtained from Paul L. Prather, Department of Pharmacology and Toxicology, College of Medicine, University of Arkansas for Medical Sciences, USA) were incubated with [^3H]SR141716A (1,554 GBq/mmol; PerkinElmer Life and Analytical Sciences, Rodgau, Germany; final concentration ∼2 nM) or [^3H]WIN55212-2 (6,438 GBq/mmol; PerkinElmer Life and Analytical Sciences, Rodgau, Germany; final concentration ∼3 nM) and the respective test compounds at different concentrations (final concentration 10^–5–10^–11 M) diluted from DMSO stock solutions (1% DMSO final concentration) in incubation buffer (50 mM TRIS-HCl, pH 7.4, supplemented with 0.1% bovine serum albumin, 5 mM MgCl2, and 1 mM EDTA) at rt for 90 min.
(§3) The nonspecific binding of the respective radioligand was determined by coincubation with CP55,940 (final concentration 10^–5 M). The normalized values of bound activity (% specific binding) were calculated and plotted vs the logarithm of the concentration of the respective test compound. The IC50 values of the resulting inhibition curves were estimated by nonlinear regression analysis (GraphPad Prism 2.01). To calculate the Ki, the equation of Cheng and Prusoff was used. For homologous competition experiments, Ki = KD.[38]

hCB2R = target: T2, hCB2R (Homo sapiens, UniProt P34972); experiment: Competitive radioligand binding assay, displacement of [3H]WIN55212-2 from homogenates of hCB2R-CHO cells; settings: for Ki: read-out: CB2R Ki; for CB2R binding affinity, in words: hCB2R, discussion of Table 1
T2 construct: host or cells: CHO cells, stably transfected
Protocol: as §1, §2, §3

CB2R = settings: cited from earlier work
hCB2R(D80N) = target: T3, hCB2R(D80N) (Homo sapiens, UniProt P34972, D80N); set-up: method as in earlier work; settings: same animal model, previously evaluated; ref 83 ([18F]LU14), 31 ([18F]LU13); cited from earlier work
T3 construct: expressed in transfected cells; host or cells: neurons of the right striatum of male Wistar rats, transduced in vivo with the AAV2/7-CaMKII0.4-intron-hCB2R(D80N) vector

[1] = hCB1R-CHO homogenates, displacement of [3H]SR141716A, read-out: CB1R Ki
[2] = hCB2R-CHO homogenates, displacement of [3H]WIN55.2212-2
[3] = enantiomer obtained by chiral HPLC separation (Scheme 1), hCB2R-CHO, [3H]WIN55.2212-2
[4] = Figure 1, ref 28 (DM102), 29, 30 (RoSMA-18-d6), 31 (LU13), 33 (LUZ5-d8)
[5] = Figure 1, ref 28 (DM102), 29, 30 (RoSMA-18-d6), 31 (LU13), 33 (LUZ5-d8), read-out: KiCB2R

T1 sequence (P21554 whole entry): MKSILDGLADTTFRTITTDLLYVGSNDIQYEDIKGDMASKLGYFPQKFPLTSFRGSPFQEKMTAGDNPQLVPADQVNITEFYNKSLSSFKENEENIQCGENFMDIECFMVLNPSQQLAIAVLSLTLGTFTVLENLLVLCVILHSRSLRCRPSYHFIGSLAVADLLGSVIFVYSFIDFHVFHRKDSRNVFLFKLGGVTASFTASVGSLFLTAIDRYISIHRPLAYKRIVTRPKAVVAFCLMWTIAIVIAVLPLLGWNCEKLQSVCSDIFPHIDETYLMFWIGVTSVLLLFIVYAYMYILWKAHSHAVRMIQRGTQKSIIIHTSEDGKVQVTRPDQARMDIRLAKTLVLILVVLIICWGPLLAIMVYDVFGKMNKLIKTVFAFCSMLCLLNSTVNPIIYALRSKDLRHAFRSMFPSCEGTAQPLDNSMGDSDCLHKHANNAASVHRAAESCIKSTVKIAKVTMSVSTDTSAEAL
T2 sequence (P34972 whole entry): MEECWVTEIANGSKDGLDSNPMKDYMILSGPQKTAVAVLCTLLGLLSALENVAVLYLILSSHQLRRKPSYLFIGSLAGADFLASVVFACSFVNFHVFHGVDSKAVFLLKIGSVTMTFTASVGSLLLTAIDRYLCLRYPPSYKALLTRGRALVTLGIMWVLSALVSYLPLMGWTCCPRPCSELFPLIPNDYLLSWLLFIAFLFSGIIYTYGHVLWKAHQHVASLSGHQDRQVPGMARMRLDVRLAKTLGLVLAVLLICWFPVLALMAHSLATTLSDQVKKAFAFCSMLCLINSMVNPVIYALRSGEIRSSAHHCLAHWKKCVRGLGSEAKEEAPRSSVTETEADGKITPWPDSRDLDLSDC
T3 sequence (P34972 whole entry D80N): as the sequence (P34972 whole entry) above, with D80N counted along it

| Compound | Ki (hCB1R; [1]) [nM] | Ki (hCB2R; [2]) [nM] | CB2R binding affinity, in words (hCB2R) | further results |
| --- | --- | --- | --- | --- |
| CC1(C)Cc2ccc(C#N)cc2C1NC(=O)c1cc2cc(F)ccc2[nH]1 (racemic) [Compound (±)-6, (rac)-N-(6-Cyano-2,2-dimethyl-2,3-dihydro-1H-inden-1-yl)-5-fluoro-1H-indole-2-carboxamide] | 842 | 3 |  |  |
| CC1(C)Cc2ccc(C#N)cc2[C@@H]1NC(=O)c1cc2c(F)cccc2[nH]1 [Compound 19A, (R)-N-(6-Cyano-2,2-dimethyl-2,3-dihydro-1H-inden-1-yl)-4-fluoro-1H-indole-2-carboxamide] | > 1000 | 3.41 |  |  |
| CC1(C)Cc2ccc(C#N)cc2[C@@H]1NC(=O)c1cc2ccc(F)cc2[nH]1 [Compound 19B, (R)-N-(6-Cyano-2,2-dimethyl-2,3-dihydro-1H-inden-1-yl)-6-fluoro-1H-indole-2-carboxamide] | > 1000 | 15.9 |  |  |
| CC1(C)Cc2ccc(C#N)cc2[C@@H]1NC(=O)c1cc2cc(OCCF)ccc2[nH]1 [Compound 19D, (R)-N-(6-Cyano-2,2-dimethyl-2,3-dihydro-1H-inden-1-yl)-5-(2-fluoroethoxy)-1H-indole-2-carboxamide] | > 1000 | 29.9 ± 3.39 | slightly decreased the affinity |  |
| CC1(C)Cc2ccc(C#N)cc2[C@@H]1NC(=O)c1cc2cc(OCCCF)ccc2[nH]1 [Compound 19E, (R)-N-(6-Cyano-2,2-dimethyl-2,3-dihydro-1H-inden-1-yl)-5-(3-fluoropropoxy)-1H-indole-2-carboxamide] | > 100 | 15.6 ± 3.85 | slightly decreased the affinity | Ki (hCB1R; supplement, formula strings sheet, read-out: CB1RKi): > 1000 nM |
| Cc1c(C(=O)N[C@H]2c3cc(C#N)ccc3CC2(C)C)[nH]c2ccc(F)cc12 [Compound 19F, (R)-N-(6-Cyano-2,2-dimethyl-2,3-dihydro-1H-inden-1-yl)-5-fluoro-3-methyl-1H-indole-2-carboxamide] | > 100 | 336 | deleterious effect on the binding affinity |  |
| CC1(C)Cc2ccc(C#N)cc2[C@@H]1NC(=O)c1nc2cc(F)ccc2[nH]1 [Compound 19G, (R)-N-(6-Cyano-2,2-dimethyl-2,3-dihydro-1H-inden-1-yl)-5-fluoro-1H-benzo[d]imidazole-2-carboxamide] | > 100 | 7.18 | high CB2R affinity |  |
| CC1(C)Cc2ccc(C#N)cc2[C@@H]1NC(=O)c1cc2cc(F)ccc2s1 [Compound 19H, (R)-N-(6-Cyano-2,2-dimethyl-2,3-dihydro-1H-inden-1-yl)-5-fluorobenzo[b]thiophene-2-carboxamide] | > 100 | 6.98 ± 3.43 | high CB2R affinity |  |
| CC1(C)Cc2ccc(OCCF)cc2[C@@H]1NC(=O)c1cc2cc(F)ccc2[nH]1 [Compound 21A, (R)-5-Fluoro-N-(6-(2-fluoroethoxy)-2,2-dimethyl-2,3-dihydro-1H-inden-1-yl)-1H-indole-2-carboxamide] | > 100 | 50 | slightly reduced affinity |  |
| CC1(C)Cc2ccc(OCCCF)cc2[C@@H]1NC(=O)c1cc2cc(F)ccc2[nH]1 [Compound 21B, (R)-5-Fluoro-N-(6-(3-fluoropropoxy)-2,2-dimethyl-2,3-dihydro-1H-inden-1-yl)-1H-indole-2-carboxamide] | > 1000 | 78.1 | slightly reduced affinity |  |
| CC1(C)Cc2ccc(C(N)=O)cc2[C@@H]1NC(=O)c1cc2cc(F)ccc2[nH]1 [Compound 21C, (R)-N-(6-Carbamoyl-2,2-dimethyl-2,3-dihydro-1H-inden-1-yl)-5-fluoro-1H-indole-2-carboxamide] | > 1000 | > 1000 |  |  |
| CC12CCC(C1)C(C)(C)C2NC(=O)c1cc2cc(F)ccc2[nH]1 (stereo not shown) [Compound 21D] | > 1000 | > 1000 | loss of CB2R binding |  |
| O=C(NC12CC3CC(CC(C3)C1)C2)c1cc2cc(F)ccc2[nH]1 [Compound 21E, N-(Adamantan-1-yl)-5-fluoro-1H-indole-2-carboxamide] | > 1000 | > 1000 | loss of CB2R binding |  |
| CC1(C)Cc2ccc(C#N)cc2C1NC(=O)c1cc2cc(F)ccc2[nH]1 (stereo not drawn) [Compound (+)-6] | > 1000 |  | inactive; also recorded: no binding | Ki (hCB2R; [3]): > 1000 nM |
| CC1(C)Cc2ccc(C#N)cc2[C@@H]1NC(=O)c1cc2cc(F)ccc2[nH]1 [Compound (–)-6, (R)-N-(6-Cyano-2,2-dimethyl-2,3-dihydro-1H-inden-1-yl)-5-fluoro-1H-indole-2-carboxamide] |  |  | binding affinity in the same range | Ki (hCB1R; compound obtained by enantioselective synthesis (Scheme 2), hCB1R-CHO, [3H]SR141716A, read-out: CB1R Ki): 965 nM; Ki (hCB1R; enantiomer obtained by chiral HPLC separation (Scheme 1), hCB1R-CHO, [3H]SR141716A, read-out: CB1R Ki): 827 nM; selectivity over CB1R (factor) (hCB2R; CB2R over CB1R): > 300; Ki (hCB2R; compound obtained by enantioselective synthesis (Scheme 2), hCB2R-CHO, [3H]WIN55.2212-2): 3.53 nM; Ki (hCB2R; [3]): 2.1 nM and 2.19 nM; Ki (CB2R; reported value, read-out: CB2R Ki): 0.24 nM |
| CC1(C)C(C(=O)c2cn(CCC[18F])c3ccccc23)C1(C)C [[^18F]DM102] |  |  |  | KiCB1R/KiCB2R (CB2R; [4]): 440; Ki (CB2R; [5]): 7.8 nM |
| [2H]C([2H])([18F])C([2H])([2H])C([2H])([2H])C([2H])([2H])n1c(=O)c(C(=O)NC23CC4CC(CC(C4)C2)C3)cc2cccnc21 [[^18F]LU13] |  |  |  | KiCB1R/KiCB2R (CB2R; [4]): > 1000; Ki (CB2R; [5]): 0.6 nM; TAC peak SUV in target region (hCB2R(D80N)): 3.6 |
| [2H]C([2H])([18F])C([2H])([2H])C([2H])([2H])OC(=O)C(CC)(CC)NC(=O)c1ccc(N2CC(OC)C2)c(OC[C@H]2C[C@@H]2CO)n1 [[^18F]RoSMA-18-d6] |  |  |  | KiCB1R/KiCB2R (CB2R; [4]): > 10000; Ki (CB2R; [5]): 0.8 nM |
| (R)-N-(6-Cyano-2,2-dimethyl-2,3-dihydro-1H-inden-1-yl)-6-fluoro-1H-indole-2-carboxamide [Compound 19C] | > 1000 | 6.49 |  |  |

From PMC10614203, “Synthesis, Structure–Activity Relationships, Radiofluorination, and Biological Evaluation of [^18F]RM365, a Novel Radioligand for Imaging the Human Cannabinoid Receptor Type 2 (CB2R) in the Brain with PET” (Journal of Medicinal Chemistry, 2023)
